From PMC9144537, “Pharmacokinetics, Prostate Distribution and Metabolic Characteristics of Four Representative Flavones after Oral Administration of the Aerial Part of Glycyrrhiza uralensis in Rats” (Molecules, 2022)
Entries after “also recorded” stand apart in the source; their conditions may differ.

Tests used:
[1] = Qualitative detection of prototype flavones and metabolites in rat plasma, prostate, urine and feces by UPLC-Q-Exactive Orbitrap-MS after oral aerial part of G. uralensis; details: rats, single oral 1 g/kg extract; for Distribution of protoflavones: Plasma: mixed plasma 0.25-48 h, + not defined
Description: Forty-eight rats were randomly divided into four groups, namely plasma (n = 6), prostate (n = 30, there were five time points, with six individuals for each time point), excretion (n = 6) and blank (n = 6). The plasma, prostate, and excretion groups were gavaged with 1 g/kg of Glycyrrhiza uralensis sample, whereas the blank group was administered 0.5% CMC-Na. Biological samples were collected after the mice were dosed once.
The tube was placed at room temperature for 1 h; then, it was centrifuged at 4 °C (10,000 rpm, 10 min). Upper plasma of different time points was separated for 50 μL and mixed and shaken well. Mixed plasma was collected at 50 μL and the plasma samples (50 μL) were vortex-mixed with 250 μL of methanol. The solution was centrifuged at 10,000 rpm for 10 min to separate the protein from the organic phase, and then the upper supernatant was collected. Then, the supernatant was transferred and evaporated to dryness under a gentle stream of nitrogen at room temperature. The residue was reconstituted in 50 µL methanol, mixed for 1 min, and centrifuged at 10,000 rpm for 10 min. At last, 20 μL of the resulting supernatant was applied to UPLC–MS/MS analysis.
UPLC-Q-Exactive Orbitrap-MS analysis was performed on a Dionex Ultimate 3000 ultra-high performance liquid system (ThermoFisher) consisting of a binary pump, a DAD detector, a column chamber, an automatic sampler and an online degasser. The sample was separated on a Waters ACQUITY UPLC HSS T3 C18 column (2.1 mm × 100 mm, 1.8 μm), with a column temperature of 30 °C, automatic sampler temperature of 10 °C, and flow rate of 0.2 mL·min^−1. The mobile phases A and B were acetonitrile with 0.1% formic acid and aqueous solution with 0.1% formic acid, respectively. […] The injection volume of the sample was 5 μL.
The MS conditions were as follows: detection mode: positive and negative ion modes; scan range: 100–1200; resolution: 70,000; sheath gas flow rate: 40; aux gas flow rate: 15; spray voltage [kV]: 3.20; capillary temp: 320 °C; aux gas heater temp: 350 °C; AGC target: 3,000,000; maximum IT (ms): 100; sheath gas: 40/45; aux gas flow: 11/10; sweep gas: 0; S-lens RF level: 55; and aux gas heater temperature: 220 °C.

[2] = Prostate distribution of four flavonoids after oral aerial part of G. uralensis (HPLC-MS/MS); format: in vivo, Sprague Dawley (SD) rats; details: rats, 0.5-8 h after oral extract 1 g/kg on day 31, n = 6
Description: (§1) The analysis was performed on the AB SCIEX QTRAP 5500 (USA) triple quadrupole mass spectrometer, which was performed in SRM and positive and negative ionization modes. LC separation is run on XSelect HSS T3 analytical column (2.1 × 100 mm, 2.5 μm, Waters), equipped with Exion LC AD system (AB Sciex) infinite binary pump. Acetonitrile was used as solvent A and 0.1% formic acid aqueous solution was used as solvent B and the flow rate was 0.1 mL/min. Using gradient elution, the initial condition is that 90% solvent B drops to 0% B within 17 min and maintains it for 2 min, returns to the initial […] at 19.1 min, and ends an analysis at 22 min. The temperature of the column oven is maintained at 35 °C. The sample is kept at 10 °C and the injection volume is 5 μL. The MS parameters are as follows: ESI ion source temperature is 500 °C; curtain gas: 30 psi; collision-activated dissociation (CAD) gas settings: medium, ion spray voltage: −4500 V, ion gas 1 and 2: 50 psi. The data acquisition software is AB SCIEX Analyst 1.7.1. The specific parameters are as Table 8.

[3] = Pharmacokinetics of four flavonoids in rat plasma after oral aerial part of G. uralensis extract (HPLC-MS/MS); format: in vivo, Sprague Dawley (SD) rats; details: for AUC(0-inf) / AUC(0-t) / Cmax / Tmax / half-life / MRT last / MRT inf: Sprague Dawley; for MRT last: day 31, n = 6, read-out: MRT0–t; for MRT inf: day 31, n = 6, read-out: MRT0–∞; for time at which steady state was reached: 3 h after daily oral extract 1 g/kg
Description: For clean-up, the plasma samples (50 μL) were vortex-mixed with 10 μL of IS and 250 μL of methanol. […] At last, 5 μL of the resulting supernatant was applied to HPLC–MS/MS analysis.
as §1

[4] = Stability test of analytes in rat prostate homogenate QC samples; format: in vitro ADME; details: for Stability, Mean ± S.D., 24 h at room temperature, low QC / Stability, Mean ± S.D., freeze-thaw cycles, low QC: nominal puerarin 0.100, luteolin 0.200, kaempferol 2.000, pinocembrin 2.000, n = 3; for Stability, Mean ± S.D., 24 h at room temperature, medium QC / Stability, Mean ± S.D., freeze-thaw cycles, medium QC: nominal puerarin 1.000, luteolin 5.000, kaempferol 100.000, pinocembrin 50.000, n = 3; for Stability, Mean ± S.D., 24 h at room temperature, high QC / Stability, Mean ± S.D., freeze-thaw cycles, high QC: nominal puerarin 5.000, luteolin 10.000, kaempferol 200.000, pinocembrin 100.000, n = 3; for Stability, Mean ± S.D., freeze-thaw cycles, low QC / Stability, Mean ± S.D., freeze-thaw cycles, medium QC / Stability, Mean ± S.D., freeze-thaw cycles, high QC: three freeze-thaw cycles
Description: All of the solutions were stored at 4℃ until analysis. Stability investigation of the four components in the plasma and prostate homogenates was performed by analyzing replicates (n = 3) of the three levels of QC samples under three different conditions. Room temperature stability was assessed after the exposure of untreated QC samples at room temperature for 24 h. Freeze and thaw stability was evaluated after three freeze (−20 °C)–thaw (room temperature) cycles.

primary liver cell model = test system: primary liver cell model; set-up: method as in Lu et al. [65]; details: ref Lu et al. [65]; cited from earlier work
[5] = oral extract 1 g/kg every day, day 31, n = 6

Distribution of protoflavones: Plasma [1]	AUC(0-inf) [3, 5] [ng·h/mL]	AUC(0-t) [3, 5] [ng·h/mL]	Cmax [3, 5] [ng/mL]	Tmax [3, 5] [h]	half-life [3, 5] [h]	MRT last ([3]; oral extract 1 g/kg every day) [h]	MRT inf ([3]; oral extract 1 g/kg every day) [h]	Stability, Mean ± S.D., 24 h at room temperature, low QC [4] [μg·mL^−1/μg·g^−1]	Stability, Mean ± S.D., 24 h at room temperature, medium QC [4] [μg·mL^−1/μg·g^−1]	Stability, Mean ± S.D., 24 h at room temperature, high QC [4] [μg·mL^−1/μg·g^−1]	Stability, Mean ± S.D., freeze-thaw cycles, low QC [4] [μg·mL^−1/μg·g^−1]	Stability, Mean ± S.D., freeze-thaw cycles, medium QC [4] [μg·mL^−1/μg·g^−1]	Stability, Mean ± S.D., freeze-thaw cycles, high QC [4] [μg·mL^−1/μg·g^−1]	SMILES	concentration in prostate (ranking, in words) [2]	other results
detected														O=c1c(O[C@@H]2O[C@H](CO)[C@@H](O)[C@H](O)[C@H]2O)c(-c2ccc(O)cc2)oc2cc(O)cc(O)c12 [Astragalin]		
detected														O=c1c(O[C@@H]2O[C@H](CO)[C@H](O)[C@H](O)[C@H]2O)c(-c2ccc(O)c(O)c2)oc2cc(O)cc(O)c12 [Hyperoside]		
detected														O=c1c(O[C@@H]2O[C@H](CO)[C@@H](O)[C@H](O)[C@H]2O)c(-c2ccc(O)c(O)c2)oc2cc(O)cc(O)c12 [Isoquercitrin]		
	23.8 ± 0.86	18.8 ± 1.18	1.27 ± 0.06	4 ± 0.17	19 ± 1.46	20.1 ± 0.84	31.8 ± 1.22	2.000 ± 0.265	99.133 ± 3.557	201.667 ± 3.215	1.833 ± 0.058	96.667 ± 2.082	202.333 ± 2.082	O=c1c(O)c(-c2ccc(O)cc2)oc2cc(O)cc(O)c12 [Kaempferol]	highest concentration; also recorded: kaempferol > pinocembrin > luteolin > puerarin; also recorded: particularly high	
	51.6 ± 1.98			0.87 ± 0.05	31.1 ± 1.17	20.7 ± 1.91	44 ± 1.72	0.194 ± 0.005	4.963 ± 0.118	9.900 ± 0.458	0.213 ± 0.031	4.833 ± 0.058	10.433 ± 0.551	O=c1cc(-c2ccc(O)c(O)c2)oc2cc(O)cc(O)c12 [Luteolin]	kaempferol > pinocembrin > luteolin > puerarin	time at which steady state was reached [3]: 9 days; AUC0–t [3, 5]: 35.01 ± 0.81 ng·h/mL; Phase II metabolites, share of the dosage (primary liver cell model): 54%
detected														COc1ccc(-c2coc3cc(O[C@@H]4O[C@H](CO)[C@@H](O)[C@H](O)[C@H]4O)ccc3c2=O)cc1 [Ononin]		
	23.8 ± 1.29	21.8 ± 0.73	1.18 ± 0.06	1.5 ± 0.05	13.2 ± 0.72	19.1 ± 0.82	23.3 ± 0.83	1.923 ± 0.076	51.000 ± 3.000	102.000 ± 2.646	1.867 ± 0.153	51.333 ± 1.528	102.333 ± 2.887	O=C1C[C@@H](c2ccccc2)Oc2cc(O)cc(O)c21 [Pinocembrin]	kaempferol > pinocembrin > luteolin > puerarin	time at which steady state was reached [3]: 5 days
detected														C[C@@H]1O[C@@H](OC[C@H]2O[C@@H](Oc3c(-c4ccc(O)c(O)c4)oc4cc(O)cc(O)c4c3=O)[C@H](O)[C@@H](O)[C@@H]2O)[C@H](O)[C@H](O)[C@H]1O [Rutin]		
detected														O=c1cc(-c2ccc(O)cc2)oc2c([C@@H]3O[C@H](CO)[C@@H](O)[C@H](O)[C@H]3O)c(O)cc(O)c12 [Vitexin]		

SMILES	Distribution of protoflavones: Plasma [1]	AUC(0-inf) [3, 5] [ng·h/mL]	AUC(0-t) [3, 5] [ng·h/mL]	Cmax [3, 5] [ng/mL]	Tmax [3, 5] [h]	half-life [3, 5] [h]	MRT last ([3]; oral extract 1 g/kg every day) [h]	MRT inf ([3]; oral extract 1 g/kg every day) [h]	Stability, Mean ± S.D., 24 h at room temperature, low QC [4] [μg·mL^−1/μg·g^−1]	Stability, Mean ± S.D., 24 h at room temperature, medium QC [4] [μg·mL^−1/μg·g^−1]	Stability, Mean ± S.D., 24 h at room temperature, high QC [4] [μg·mL^−1/μg·g^−1]	Stability, Mean ± S.D., freeze-thaw cycles, low QC [4] [μg·mL^−1/μg·g^−1]	Stability, Mean ± S.D., freeze-thaw cycles, medium QC [4] [μg·mL^−1/μg·g^−1]	Stability, Mean ± S.D., freeze-thaw cycles, high QC [4] [μg·mL^−1/μg·g^−1]	concentration in prostate (ranking, in words) [2]	other results
O=c1c(-c2ccc(O)cc2)coc2c([C@@H]3O[C@H](CO)[C@@H](O)[C@H](O)[C@H]3O)c(O)ccc12 [Puerarin]	detected	242 ± 2.45	238 ± 23.4	23.8 ± 1.05	0.5 ± 0.04		14.4 ± 1.21	15.1 ± 1.71		1.097 ± 0.138	4.940 ± 0.056	0.100 ± 0.005		5.057 ± 0.224	kaempferol > pinocembrin > luteolin > puerarin	t1/2 [3, 5]: 6.43 ± 0.20 h; Distribution of four representative flavonoids and metabolites: Plasma ([1]; + not defined (detected)): detected
